Measured values as given in patent publication US20240425517A1, “NOVEL COMPOUND FOR DEGRADATION OF TARGET PROTEIN OR POLYPEPTIDE BY POLYUBIQUITINATION” (PRAZER THERAPEUTICS INC., priority 2021, published 2024).

Target: T1, BRD4 proteins (Homo sapiens, UniProt O60885)
T1 construct: endogenous in cells; host or cells: MM.1S
Test: Degradation of BRD4 protein in MM.1S cell lines (Western blot densitometry)
Format: cell-based
Conditions: MM.1S cells, 10 μM, 24 hours
In short: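 MM.1S cells in RPMI-1640 with 10% FBS were treated with each degrader at 10 μM for 24 h. RIPA lysates were analysed by SDS-PAGE/Western blot with β-actin as reference, and BRD4 band densitometry was scored as reduction <40% (+), 40-<70% (++) or ≥70% (+++).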

SMILES | BRD4 degrading capacity (%)
COC(=O)c1ccc(C#CCN)cc1NC(=O)CCCNC(=O)C[C@@H]1N=C(c2ccc(Cl)cc2)c2c(sc(C)c2C)-n2c(C)nnc21.Cl [5-90′, methyl (S)-4-(3-aminoprop-1-yn-1-yl)-2-(4-(2-(4-(4-chlorophenyl)-2,3,9-trimethyl-6H-thieno[3,2-f][1,2,4]triazolo[4,3-a][1,4]diazepin-6-yl)acetamido)butanamido)benzoate hydrochloride] | +++ (the degrading capacity was reduced by 70% or more)
COC(=O)c1nc(NC(=O)CCCNC(=O)C[C@@H]2N=C(c3ccc(Cl)cc3)c3c(sc(C)c3C)-n3c(C)nnc32)ccc1C#CCN.Cl [5-96′, methyl (S)-3-(3-aminoprop-1-yn-1-yl)-6-(4-(2-(4-(4-chlorophenyl)-2,3,9-trimethyl-6H-thieno[3,2-f][1,2,4]triazolo[4,3-a][1,4]diazepin-6-yl)acetamido)butanamido)picolinate hydrochloride] | +++ (the degrading capacity was reduced by 70% or more)
Cc1sc2c(c1C)C(c1ccc(Cl)cc1)=N[C@@H](CC(=O)NCCCCCC(=O)Nc1cccc(C#CCN)c1)c1nnc(C)n1-2.Cl [5-104′, (S)—N-(3-(3-aminoprop-1-yn-1-yl)phenyl)-6-(2-(4-(4-chlorophenyl)-2,3,9-trimethyl-6H-thieno[3,2-f][1,2,4]triazolo[4,3-a][1,4]diazepin-6-yl)acetamido)hexanamide hydrochloride] | ++ (the degrading capacity was reduced by 40% to 70% (exclusive of 70))
COC(=O)c1ccc(NC(=O)CCCC(=O)OCC[C@@H]2N=C(c3ccc(Cl)cc3)c3c(sc(C)c3C)-n3c(C)nnc32)cc1C#CCN.Cl [5-106′, methyl (S)-2-(3-aminoprop-1-yn-1-yl)-4-(5-(2-(4-(4-chlorophenyl)-2,3,9-trimethyl-6H-thieno[3,2-f][1,2,4]triazolo[4,3-a][1,4]diazepin-6-yl)ethoxy)-5-oxopentanamido)benzoate hydrochloride] | + (the degrading capacity of each BRD4 degrader was reduced by less than 40%)
Cc1sc2c(c1C)C(c1ccc(Cl)cc1)=N[C@@H](CC(=O)NCCCCCCCC(=O)Nc1cccc(C#CCN)c1)c1nnc(C)n1-2.Cl [5-107′, (S)—N-(3-(3-aminoprop-1-yn-1-yl)phenyl)-8-(2-(4-(4-chlorophenyl)-2,3,9-trimethyl-6H-thieno[3,2-f][1,2,4]triazolo[4,3-a][1,4]diazepin-6-yl)acetamido)octanamide hydrochloride] | ++ (the degrading capacity was reduced by 40% to 70% (exclusive of 70))
Cc1sc2c(c1C)C(c1ccc(Cl)cc1)=N[C@@H](CC(=O)NCCCCCCCCCCC(=O)Nc1cccc(C#CCN)c1)c1nnc(C)n1-2.Cl [5-108′, (S)—N-(3-(3-aminoprop-1-yn-1-yl)phenyl)-11-(2-(4-(4-chlorophenyl)-2,3,9-trimethyl-6H-thieno[3,2-f][1,2,4]triazolo[4,3-a][1,4]diazepin-6-yl)acetamido)undecanamide hydrochloride] | +++ (the degrading capacity was reduced by 70% or more)
Cc1sc2c(c1C)C(c1ccc(Cl)cc1)=N[C@@H](CCOC(=O)CCCCCCCCCC(=O)Nc1cccc(C#CCN)c1)c1nnc(C)n1-2.Cl [5-109′, (S)-2-(4-(4-chlorophenyl)-2,3,9-trimethyl-6H-thieno[3,2-f][1,2,4]triazolo[4,3-a][1,4]diazepin-6-yl)ethyl 11-((3-(3-aminoprop-1-yn-1-yl)phenyl)amino)-11-oxoundecanoate hydrochloride] | +++ (the degrading capacity was reduced by 70% or more)
COC(=O)c1ccc(NC(=O)CCCCCCCCCC(=O)OCC[C@@H]2N=C(c3ccc(Cl)cc3)c3c(sc(C)c3C)-n3c(C)nnc32)cc1C#CCN.Cl [5-110′, methyl (S)-2-(3-aminoprop-1-yn-1-yl)-4-(11-(2-(4-(4-chlorophenyl)-2,3,9-trimethyl-6H-thieno[3,2-f][1,2,4]triazolo[4,3-a][1,4]diazepin-6-yl)ethoxy)-11-oxoundecanamido)benzoate hydrochloride] | ++ (the degrading capacity was reduced by 40% to 70% (exclusive of 70))
